Measurements: paper PMC6508677, “Identification of druggable small molecule antagonists of the Plasmodium falciparum hexose transporter PfHT and assessment of ligand access to the glucose permeation pathway via FLAG-mediated protein engineering” (PLoS ONE, 2019)
Several values for one entry are separate records, joined by “and”; a condition that tells them apart may be missing. Equal entries are not always repeated. Where two headings read alike, the source gives them in different places.

Molecular target: T1, FTPfHT (Plasmodium falciparum, UniProt Q7KWJ5)
T1 sequence (Q7KWJ5 1-504): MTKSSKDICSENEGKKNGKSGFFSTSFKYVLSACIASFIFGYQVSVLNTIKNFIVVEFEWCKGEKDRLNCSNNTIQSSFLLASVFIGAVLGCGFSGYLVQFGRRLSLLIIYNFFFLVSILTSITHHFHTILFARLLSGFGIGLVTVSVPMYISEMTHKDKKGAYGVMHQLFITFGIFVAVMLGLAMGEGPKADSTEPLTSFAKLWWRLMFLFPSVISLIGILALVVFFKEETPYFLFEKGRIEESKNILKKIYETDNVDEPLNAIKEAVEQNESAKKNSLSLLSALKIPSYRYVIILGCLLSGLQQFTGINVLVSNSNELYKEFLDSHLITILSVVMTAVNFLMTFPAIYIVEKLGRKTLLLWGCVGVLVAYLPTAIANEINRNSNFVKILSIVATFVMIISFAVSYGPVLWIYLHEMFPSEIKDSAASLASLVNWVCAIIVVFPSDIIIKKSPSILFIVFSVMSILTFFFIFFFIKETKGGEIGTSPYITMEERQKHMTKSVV
Test: [3H]-D-glucose specific uptake into FTPfHT-containing liposomes
Format: biochemical
Details: for D-Glc - L-Glc Uptake, single experiments / D-Glc - L-Glc Uptake, Ave: liposomes; for D-Glc - L-Glc Uptake, Ave: average of Expt 1-3
Text: SalI and NotI restriction sites were introduced to the 5’ and 3’ ends, respectively, of FTPfHT cDNA via PCR and then this construct was placed into the multiple cloning site of the pACMV-tetO vector [25]. Stable tetracycline-inducible HEK293S GnTI cell lines expressing FTPfHT were generated using the same protocol previously described for FTGLUT4 [26]. FTPfHT protein was solubilized from FTPfHT/HEK293S GnTI cell pellets with lauryl maltose neopentyl glycol (LMNG) detergent and purified using M2 anti-FLAG affinity gel (Sigma) as described in [27]. The FLAG tag was cleaved using tobacco etch virus (TEV) protease (plasmid purchased from Addgene, Cambridge, MA) at a ratio of 1:20 TEV/PfHT overnight at 4°C in the presence of 1 mM DTT. Based on SDS-PAGE and Blue BANDit protein stain (Amresco, Solon, OH), PfHT protein after FLAG elution was ~95% pure.
Liposomes containing PfHT were made according to Hresko et al.. Briefly, purified PfHT protein in LMNG micelles described above were mixed with Triton X-100 destabilized eggPC/POPA/POPE (70:15:15) large unilamellar vesicles (lipid to protein ratio of 100–125:1 (w/w)). By slowly removing the detergents with Amberlite XAD-2 beads (Supelco Analytical, Bellefonte, PA), PfHT protein spontaneously inserts into the liposomes. After removal of the beads, liposomes were collected by ultracentrifugation, resuspended in buffer, and flash-frozen with liquid nitrogen. Frozen liposomes containing purified PfHT protein were thawed at room temperature followed by extrusion through a 200-nm polycarbonate filter to create liposomes of uniform size. Uptake was started by adding [^3H]-D-glucose (1 μCi/ml, 200 μM cold D-glucose) to PfHT proteoliposomes at room temperature. Transport was stopped at different times with 5 ml of ice-cold quench buffer (50 mM potassium phosphate, 130 mM KCl, pH 7.4) and then filtered by vacuum on a 0.2-μm mixed cellulose ester filter (Advantec, Durham, NC). Filters were subsequently washed with an additional 10 ml of quench buffer. Scintillation fluid (Filter Count, PerkinElmer, Waltham, MA) was added to the filters and the radioactivity counted. [^3H]-L-glucose (1 μCi/ml, 200 μM cold L-glucose) was used to determine nonspecific transport. Specific uptake was calculated by subtracting nonspecific [^3H]-L-glucose from [^3H]-D-glucose uptake. Uptake was normalized to the amount of transporter per reaction, determined by analyzing aliquots of transporter-containing liposomes along with a BSA standard curve on an SDS-polyacrylamide gel stained with Blue Bandit protein stain and quantified using an Odyssey infrared imaging system (LI-COR Biosciences, Lincoln, NB). Data were fitted by least squares nonlinear regression analysis using GraphPad Prism 6.0.

SMILES: Cc1ccc(S(=O)(=O)CCNC(=O)c2c(-c3c(Cl)cccc3Cl)noc2C)cc1 [WU-1, 3-(2,6-dichlorophenyl)-5-methyl-N-[2-(4-methylbenzenesulfonyl)ethyl]-1,2-oxazole-4-carboxamide]
- IC50 (D-Glc - L-Glc uptake in reconstituted liposomes, Expt 1, Expt 2, Expt 3, read-out: IC50, single experiments): 12.4 µM and 18.8 µM and 8.31 µM
- IC50 (S3 Fig, read-out: IC50 for specific D-glucose uptake into FTPfHT liposomes): 13.2 ± 3.1 µM
- D-Glc - L-Glc Uptake, single experiments (WU-1 0.001 µM, Expt 1, Expt 2, Expt 3): 36.56 pmol/µg PfHT and 54.37 pmol/µg PfHT and 37.47 pmol/µg PfHT
- D-Glc - L-Glc Uptake, Ave (WU-1 0.001 µM): 42.8 pmol/µg PfHT
- D-Glc - L-Glc Uptake, single experiments (WU-1 0.625 µM, Expt 1, Expt 2, Expt 3): 44.52 pmol/µg PfHT and 43.4 pmol/µg PfHT and 46.2 pmol/µg PfHT
- D-Glc - L-Glc Uptake, Ave (WU-1 0.625 µM): 44.7 pmol/µg PfHT
- D-Glc - L-Glc Uptake, single experiments (WU-1 1.25 µM, Expt 1, Expt 2, Expt 3): 39.01 pmol/µg PfHT and 40.61 pmol/µg PfHT and 38.03 pmol/µg PfHT
- D-Glc - L-Glc Uptake, Ave (WU-1 1.25 µM): 39.22 pmol/µg PfHT
- D-Glc - L-Glc Uptake, single experiments (WU-1 2.5 µM, Expt 1, Expt 2, Expt 3): 43.49 pmol/µg PfHT and 43.42 pmol/µg PfHT and 42.09 pmol/µg PfHT
- D-Glc - L-Glc Uptake, Ave (WU-1 2.5 µM): 43 pmol/µg PfHT
- D-Glc - L-Glc Uptake, single experiments (WU-1 5 µM, Expt 1, Expt 2, Expt 3): 32.42 pmol/µg PfHT and 25.14 pmol/µg PfHT and 27.92 pmol/µg PfHT
- D-Glc - L-Glc Uptake, Ave (WU-1 5 µM): 28.49 pmol/µg PfHT
- D-Glc - L-Glc Uptake, single experiments (WU-1 10 µM, Expt 1, Expt 2, Expt 3): 23.96 pmol/µg PfHT and 25.01 pmol/µg PfHT and 20.67 pmol/µg PfHT
- D-Glc - L-Glc Uptake, Ave (WU-1 10 µM): 23.21 pmol/µg PfHT
- D-Glc - L-Glc Uptake, Ave (WU-1 20 µM): 17.17 pmol/µg PfHT
- D-Glc - L-Glc Uptake, single experiments (WU-1 40 µM, Expt 1, Expt 2, Expt 3): 10.91 pmol/µg PfHT and 13.9 pmol/µg PfHT and 10.43 pmol/µg PfHT
- D-Glc - L-Glc Uptake, Ave (WU-1 40 µM): 11.75 pmol/µg PfHT
- D-Glc - L-Glc Uptake, single experiments (WU-1 80 µM, Expt 1, Expt 2, Expt 3): 3.31 pmol/µg PfHT and 3.52 pmol/µg PfHT and 3.4 pmol/µg PfHT
- D-Glc - L-Glc Uptake, Ave (WU-1 80 µM): 3.41 pmol/µg PfHT
- D-Glc - L-Glc Uptake, single experiments (WU-1 160 µM, Expt 1, Expt 2, Expt 3): 4.44 pmol/µg PfHT and 4.32 pmol/µg PfHT and 4.15 pmol/µg PfHT
- D-Glc - L-Glc Uptake, Ave (WU-1 160 µM): 4.3 pmol/µg PfHT
